Measurements reported in patent US6093732A, “4-hydroxyquinoline-3-carboxamides and hydrazides as antiviral agents” (Pharmacia & Upjohn Company, priority 1998, dated 2000).

Molecular target: T1, HCMV polymerase (Human cytomegalovirus, UniProt P08546)
T1 construct: made in house; host or cells: recombinant baculovirus-infected SF-9 cells
Experiment: HCMV polymerase scintillation proximity assay (SPA), modified version
Format: biochemical
Conditions: CMV polymerase; Table 1; modified assay with 4.5 mM DTT, compounds in 100% DMSO; read-out: Antiviral Selective Polymerase IC50 Values, CMV
Outline: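 Recombinant polymerase (baculovirus/SF-9) in 5.4 mM HEPES pH 7.5, 11.7 mM KCl, 4.5 mM MgCl2, 0.36 mg/ml BSA, 90 nM 3H-dTTP, ±2 mM CHAPS; started with 6 nM biotinylated poly(dA)-oligo(dT), 25° C or 37° C, EDTA-stopped in linear range (30 min for HCMV). Streptavidin-SPA read; IC50 by linear regression. Modified version: 100% DMSO compound dilution, 4.5 mM DTT added.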

T1 sequence (P08546 whole entry): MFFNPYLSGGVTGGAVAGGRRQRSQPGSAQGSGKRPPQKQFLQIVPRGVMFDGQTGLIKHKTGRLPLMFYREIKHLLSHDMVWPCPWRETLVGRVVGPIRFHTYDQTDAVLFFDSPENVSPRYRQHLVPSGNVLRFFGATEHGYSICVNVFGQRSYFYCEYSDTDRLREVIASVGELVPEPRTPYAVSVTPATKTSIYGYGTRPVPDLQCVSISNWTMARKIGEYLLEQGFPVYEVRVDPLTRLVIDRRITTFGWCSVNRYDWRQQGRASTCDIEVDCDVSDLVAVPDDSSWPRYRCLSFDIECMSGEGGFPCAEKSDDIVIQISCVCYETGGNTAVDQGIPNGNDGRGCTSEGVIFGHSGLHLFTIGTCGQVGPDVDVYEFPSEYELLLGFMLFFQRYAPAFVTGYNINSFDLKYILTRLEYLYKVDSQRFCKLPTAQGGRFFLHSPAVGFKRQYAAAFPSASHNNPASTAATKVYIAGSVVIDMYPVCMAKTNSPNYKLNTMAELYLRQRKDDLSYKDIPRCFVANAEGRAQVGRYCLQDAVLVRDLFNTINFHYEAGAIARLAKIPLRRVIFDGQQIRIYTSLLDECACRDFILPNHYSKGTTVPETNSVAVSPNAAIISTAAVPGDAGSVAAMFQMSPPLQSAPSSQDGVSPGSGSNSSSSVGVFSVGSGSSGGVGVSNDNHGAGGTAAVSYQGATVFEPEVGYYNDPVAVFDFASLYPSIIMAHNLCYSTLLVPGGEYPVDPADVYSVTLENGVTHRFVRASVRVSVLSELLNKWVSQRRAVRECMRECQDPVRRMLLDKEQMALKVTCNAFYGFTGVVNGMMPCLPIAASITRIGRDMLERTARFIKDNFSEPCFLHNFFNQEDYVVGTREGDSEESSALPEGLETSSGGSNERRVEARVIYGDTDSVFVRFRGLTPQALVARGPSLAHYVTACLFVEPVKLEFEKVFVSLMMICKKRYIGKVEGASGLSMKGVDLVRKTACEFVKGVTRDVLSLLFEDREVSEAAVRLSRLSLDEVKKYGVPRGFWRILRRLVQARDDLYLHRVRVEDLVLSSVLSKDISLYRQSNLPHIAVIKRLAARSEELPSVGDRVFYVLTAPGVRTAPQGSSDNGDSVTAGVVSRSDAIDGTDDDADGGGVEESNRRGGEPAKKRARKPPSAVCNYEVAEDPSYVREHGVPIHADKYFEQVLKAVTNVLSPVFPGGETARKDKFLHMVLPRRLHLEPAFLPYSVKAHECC

IC50 [µM]	Structure (SMILES)
5	CN(C)C(=O)c1cc(F)c2ncc(C(=O)NCc3ccc(Cl)cc3)c(O)c2c1 [Example 182, N^3-(4-Chlorobenzyl)-8-fluoro-4-hydroxy-N^6,N^6-dimethyl-3,6-quinolinedicarboxamide]
32	O=C(NCCc1ccc(O)cc1)c1cc(F)c2ncc(C(=O)NCc3ccc(Cl)cc3)c(O)c2c1 [Example 183, N^3-(4-Chlorobenzyl)-8-fluoro-4-hydroxy-N^6-(4-hydroxyphenethyl)-3,6-quinolinedicarboxamide]
30.4	NC(=O)c1cc(F)c2ncc(C(=O)NCc3ccc(Cl)cc3)c(O)c2c1 [Example 184, N^3-(4-Chlorobenzyl)-8-fluoro-4-hydroxy-3,6-quinolinedicarboxamide]
32.8	O=C(NCc1ccc(Cl)cc1)c1cc(F)c2ncc(C(=O)NCc3ccc(Cl)cc3)c(O)c2c1 [Example 185, N^3,N^6 -Bis(4-chlorobenzyl)-8-fluoro-4-hydroxy-3,6-quinolinedicarboxamide]
13.8	Nc1cc(F)c2ncc(C(=O)NCc3ccc(Cl)cc3)c(O)c2c1 [Example 186, 6-Amino-N-(4-chlorobenzyl)-8-fluoro-4-hydroxy-3-quinolinecarboxamide]
17.7	COc1ccc(S(=O)(=O)Nc2cc(F)c3ncc(C(=O)NCc4ccc(Cl)cc4)c(O)c3c2)cc1 [Example 187, N-(4-Chlorobenzyl)-8-fluoro-4-hydroxy-6-{[(4-methoxyphenyl)-sulfonyl]amino}-3-quinolinecarboxamide]
2.1	O=C(NCc1ccc(Cl)cc1)c1cnc2ccc(NCCO)cc2c1O [Example 188, N-(4-Chlorobenzyl)-4-hydroxy-6-[(2-hydroxyethyl)amino]-3-quinolinecarboxamide]
19.4	CCN(CCO)c1ccc2ncc(C(=O)NCc3ccc(Cl)cc3)c(O)c2c1 [Example 189, N-(4-Chlorobenzyl)-6-[ethyl(2-hydroxyethyl)amino]-4-hydroxy-3-quinolinecarboxamide]
2.7	O=C(NCc1ccc(Cl)cc1)c1cnc2ccc(N3CCOC3=O)cc2c1O [Example 190, N-(4-Chlorobenzyl)-4-hydroxy-6-(2-oxo-1,3-oxazolidin-3-yl)-3-quinolinecarboxamide]
1.6	O=C(NCc1ccc(Cl)cc1)c1cnc2c(F)cc(S(=O)(=O)NCc3cccc4ccccc34)cc2c1O [Example 192, N-(4-Chlorobenzyl)-8-fluoro-4-hydroxy-6-{[(1-naphthylmethyl)aminor]-sulfonyl}-3-quinolinecarboxamide]
2.7	O=C(NCc1ccc(Cl)cc1)c1cnc2c(F)cc(S(=O)(=O)NCCc3c[nH]c4ccccc34)cc2c1O [Example 193, N-(4-Chlorobenzyl)-8-fluoro-4-hydroxy-6-({[2-(1H-indol-3-yl)ethyl]-amino)sulfonyl)-3-quinolinecarboxamide]
15.3	O=C(NCc1ccc(Cl)cc1)c1cnc2c(F)cc(S(=O)(=O)NCc3ccco3)cc2c1O [Example 194, N-(4-Chlorobenzyl)-8-fluoro-6-{[(2-furylmethyl)amino]sulfonyl}-4-hydroxy-3-quinolinecarboxamide]
18.3	O=C(NCc1ccc(Cl)cc1)c1cnc2c(F)cc(S(=O)(=O)N(CCO)CCO)cc2c1O [Example 195, 6-{[Bis(2-hydroxyethyl)amino]sulfonyl}-N-(4-chlorobenzyl)-8-fluoro-4-hydroxy-3-quinolinecarboxamide]
19.4	CCOC(=O)CNS(=O)(=O)c1cc(F)c2ncc(C(=O)NCc3ccc(Cl)cc3)c(O)c2c1 [Example 196, Ethyl 2-{[(3-{[(4-chlorobenzyl)amino]carbonyl}-8-fluoro-4-hydroxy-6-quinolinyl)sulfonyl]amino) acetate]
19.6	O=C(NCc1ccc(Cl)cc1)c1cnc2c(F)cc(S(=O)(=O)NCCO)cc2c1O [Example 197, N-(4-Chlorobenzyl)-8-fluoro-4-hydroxy-6-{[(2-hydroxyethyl)amino]-sulfonyl}-3-quinolinecarboxamide]
21	O=C(NCc1ccc(Cl)cc1)c1cnc2c(F)cc(S(=O)(=O)N3CCOCC3)cc2c1O [Example 198, N-(4-Chlorobenzyl)-8-fluoro-4-hydroxy-6-(4-morpholinylsulfonyl)-3-quinolinecarboxamide]
26.4	O=C(NCc1ccc(Cl)cc1)c1cnc2c(F)cc(S(=O)(=O)NCc3ccccn3)cc2c1O [Example 199, N-(4-Chlorobenzyl)-8-fluoro-4-hydroxy-6-{[(2-pyridinylmethyl)amino]-sulfonyl}-3-quinolinecarboxamide]

IC50 [µM]	Structure (SMILES)
38.8	O=C(NCc1ccc(Cl)cc1)c1cnc2c(F)cc(S(=O)(=O)Nc3ccccn3)cc2c1O [Example 200, N-(4-Chlorobenzyl)-8-fluoro-4-hydroxy-6-[(2-pyridinylamino)-sulfonyl]-3-quinolinecarboxamide]
6	O=C(NCc1ccc(Cl)cc1)c1cnc2c(F)cc(S(=O)(=O)NCC3CCCCC3)cc2c1O [Example 201, N-(4-chlorobenzyl)-6-{[(cyclohexylmethyl)amino]sulfonyl}-8-fluoro-4-hydroxy-3-quinolinecarboxamide]
≥ 50	CN1CCCC1CCNS(=O)(=O)c1cc(F)c2ncc(C(=O)NCc3ccc(Cl)cc3)c(O)c2c1 (stereo not shown) [Example 202, N-(4-chlorobenzyl)-8-fluoro-4-hydroxy-6-({[2-(1-methyl-2-pyrrolidinyl)ethyl]amino}sulfonyl)-3-quinolinecarboxamide]
38.8	O=C(NCc1ccc(Cl)cc1)c1cnc2c(F)cc(S(=O)(=O)NCCN3CCCC3)cc2c1O [Example 203, N-(4-chlorobenzyl)-8-fluoro-4-hydroxy-6-({[2-(1-pyrrolidinyl)ethyl]amino}sulfonyl)-3-quinolinecarboxamide]
13.8	O=C(NCc1ccc(Cl)cc1)c1cnc2c(F)cc(S(=O)(=O)NCc3ccco3)cc2c1O [Example 204, N-(4-chlorobenzyl)-8-fluoro-6-{[(2-furylmethyl)amino]sulfonyl}-4-hydroxy-3-quinolinecarboxamide]
≥ 50	O=C(NCc1ccc(Cl)cc1)c1cnc2c(F)cc(S(=O)(=O)NCCCNC3CCCCC3)cc2c1O [Example 205, N-(4-chlorobenzyl)-6-({[3-(cyclohexylamino)propyl]amino}sulfonyl)-8-fluoro-4-hydroxy-3-quinolinecarboxamide]
2.4	O=C(NCc1ccc(Cl)cc1)c1cnc2c(F)cc(S(=O)(=O)NCc3cccc4ccccc34)cc2c1O [Example 206, N-(4-chlorobenzyl)-8-fluoro-4-hydroxy-6-{[(1-naphthylmethyl)amino]sulfonyl}-3-quinolinecarboxamide]
14.4	O=C(NCc1ccc(Cl)cc1)c1cnc2c(F)cc(S(=O)(=O)NCCc3c[nH]cn3)cc2c1O [Example 207, N-(4-chlorobenzyl)-8-fluoro-4-hydroxy-6-({[2-(1H-imidazol-4-yl)ethyl]amino}sulfonyl)-3-quinolinecarboxamide]
41.6	O=C(NCc1ccc(Cl)cc1)c1cnc2c(F)cc(S(=O)(=O)NCC3CCCO3)cc2c1O (stereo not shown) [Example 208, N-(4-chlorobenzyl)-8-fluoro-4-hydroxy-6-{[(tetrahydro-2-furanylmethyl)amino]sulfonyl}-3-quinolinecarboxamide]
8.6	O=C(NCc1ccc(Cl)cc1)c1cnc2c(F)cc(S(=O)(=O)NCc3cccs3)cc2c1O [Example 209, N-(4-chlorobenzyl)-8-fluoro-4-hydroxy-6-{[(2-thienylmethyl)amino]sulfonyl}-3-quinolinecarboxamide]
4.8	O=C(NCc1ccc(Cl)cc1)c1cnc2c(F)cc(S(=O)(=O)NCCc3c[nH]c4ccccc34)cc2c1O [Example 210, N-(4-chlorobenzyl)-8-fluoro-4-hydroxy-6-({[2-(1H-indol-3-yl)ethyl]amino}sulfonyl)-3-quinolinecarboxamide]
5.1	COc1ccc2[nH]cc(CCNS(=O)(=O)c3cc(F)c4ncc(C(=O)NCc5ccc(Cl)cc5)c(O)c4c3)c2c1 [Example 211, N-(4-chlorobenzyl)-8-fluoro-4-hydroxy-6-({[2-(5-methoxy-1H-indol-3-yl)ethyl]amino}sulfonyl)-3-quinolinecarboxamide]
14.5	O=C(NCc1ccc(Cl)cc1)c1cnc2c(F)cc(S(=O)(=O)NCc3ccc4c(c3)OCO4)cc2c1O [Example 212, 6-{[(1,3-benzodioxol-5-ylmethyl)amino]sulfonyl}-N-(4-chlorobenzyl)-8-fluoro-4-hydroxy-3-quinolinecarboxamide]
18.9	O=C(NCc1ccc(Cl)cc1)c1cnc2c(F)cc(S(=O)(=O)NCCN3CCOCC3)cc2c1O [Example 213, N-(4-chlorobenzyl)-8-fluoro-4-hydroxy-6-{[(2-morpholinoethyl)amino]sulfonyl}-3-quinolinecarboxamide]
29.7	O=C(NCc1ccc(Cl)cc1)c1cnc2c(F)cc(S(=O)(=O)NCCCN3CCOCC3)cc2c1O [Example 214, N-(4-chlorobenzyl)-8-fluoro-4-hydroxy-6-{[(3-morpholinopropyl)amino]sulfonyl}-3-quinolinecarboxamide]
8.6	O=C(NCc1ccc(Cl)cc1)c1cnc2c(F)cc(S(=O)(=O)NCCNc3ccc([N+](=O)[O-])cn3)cc2c1O [Example 215, N-(4-chlorobenzyl)-8-fluoro-4-hydroxy-6-[({2-[(5-nitro-2-pyridinyl)amino]ethyl}amino)sulfonyl]-3-quinolinecarboxamide]
18.7	O=C(NCc1ccc(Cl)cc1)c1cnc2c(F)cc(S(=O)(=O)NCc3ccccn3)cc2c1O [Example 216, N-(4-chlorobenzyl)-8-fluoro-4-hydroxy-6-{[(2-pyridinylmethyl)amino]sulfonyl}-3-quinolinecarboxamide]
